Experimental data: patent US9776990B2, “Isoindolone derivatives” (AbbVie Inc., priority 2012, dated 2017)
Marks after values point to notes of the source that are not given here.

Experiments:
HPAC = test: Proliferation panel assay, HPAC; format: cell-based; settings: Homo sapiens, 120 h, Pancreas, 5 days, read-out: Cellular Proliferation EC50
Method: (§1) The impact of compounds of the Examples on cancer cell proliferation was determined using the breast cancer cell line MX-1 (ATCC) in a 3-day proliferation assay. MX-1 cells were maintained in RPMI supplemented with 10% FBS at 37 C.° and an atmosphere of 5% CO2. For compound testing, MX-1 cells were plated in 96-well black bottom plates at a density of 5000 cells/well in 90 μl of culture media and incubated at 37° overnight to allow cell adhesion and spreading. Compound dilution series were prepared in DMSO via a 3-fold serial dilution from 3 mM to 0.1 μM. […]
(§2) Luminescence readings from the Cell Titer Glo assay were normalized to the DMSO treated cells and analyzed using the GraphPad Prism software with sigmoidal curve fitting to obtain EC50s. The minimum significant ratio (MSR) was determined to evaluate assay reproducibility (Eastwood et al., (2006) J Biomol Screen, 11: 253-261). The overall MSR was determined to be 2.1 and a moving MSR (last six run MSR overtime) has been <2.
(§3) The compound of Example 40 was tested for its impact on proliferation of a panel of cancer cell line types (with specific cell lines tested) as set out in (Table 2). […] Cell proliferation data were analyzed as described above in the MX-1 proliferation assay to obtain the EC50 for the compounds reported in Table 2.

NCI-H929 = test: Proliferation panel assay, NCI-H929; format: cell-based; settings: Homo sapiens, 120 h; Multiple Myeloma, NCI-H929, 5 days; read-out: Cellular Proliferation EC50
Method: as §1, §2, §3

786-0 = test: Proliferation panel assay, 786-0; format: cell-based; settings: Homo sapiens, 120 h; RCC, 786-0, 5 days; read-out: Cellular Proliferation EC50
Method: as §1, §2, §3

Ramos = test: Proliferation panel assay, Ramos; format: cell-based; settings: Homo sapiens, 120 h, NHL, 5 days, read-out: Cellular Proliferation EC50
Method: as §1, §2, §3

[1] = test system: HT1080 human fibrosarcoma xenograft; test: Xenograft tumor growth inhibition assay, HT1080; format: in vivo, mice; settings: BID x 14, based on day 18
Method: (§4) The effect of the compound of Example 40 to inhibit the growth of Ramos, OPM-2, MX-1, MV4-11, and HT1080 xenograft tumors was evaluated. Briefly, 0.5×10^6 human cancer cells (HT1080), 1×10^6 human cancer cells (Ramos), 5×10^6 human cancer cells (OPM-2, MV4-11) or 1:10 tumor brie (MX-1) (in S-MEM (MEM, Suspension, no Calcium, no Glutamine)) (Life Technologies Corporation) were inoculated subcutaneously into the right hind flank of female SCID or SCID-beige (MV4-11, HT1080) mice (Charles Rivers Labs) on study day 0. Compound was formulated in 2% EtOH, 5% Tween-80, 20% PEG-400, 73% HPMC (Ramos, OPM-2 and MX-1) or 5% DMSO, 5% EtOH, 30% PEG400, 60% Phosal 53 (MV4-11, HT1080). Administration of compound was initiated at the time of size match on day 8 (HT1080), day 17 (MX-1), or day 18 (Ramos, MV4-11, OPM-2). The tumors were measured by a pair of calipers twice a week starting at the time of size match and tumor volumes were calculated according to the formula V=L×W^2/2 (V: volume, mm^3; L: length, mm. W: width, m) Tumor volume was measured for the duration of the experiment until the mean tumor volume in each group reached an endpoint of >1000 mm^3.

[2] = test system: OPM-2 human multiple myeloma cancer xenograft; test: Xenograft tumor growth inhibition assay, OPM-2; format: in vivo, mice; settings: OPM-2 xenograft
Method: as §4

BxPC3FP5 = test: Proliferation panel assay, BxPC3FP5; format: cell-based; settings: 120 h; Pancreas, BxPC3FP5, 5 days; read-out: Cellular Proliferation EC50
Method: as §1, §2, §3

[3] = test system: MV4-11 human AML xenograft; test: Xenograft tumor growth inhibition assay, MV4-11; format: in vivo, mice; settings: MV4-11 xenograft
Method: as §4

Raji = test: Proliferation panel assay, Raji; format: cell-based; settings: Homo sapiens, 120 h, Burkitt lymphoma, 5 days, read-out: Cellular Proliferation EC50
Method: as §1, §2, §3

GEO = test: Proliferation panel assay, GEO; format: cell-based; settings: 120 h, Colon, 5 days, read-out: Cellular Proliferation EC50
Method: as §1, §2, §3

MDAMB231 = test: Proliferation panel assay, MDAMB231; format: cell-based; settings: Homo sapiens, MDA-MB-231, 120 h; Breast, MDAMB231, 5 days; read-out: Cellular Proliferation EC50
Method: as §1, §2, §3

FaDu = test: Proliferation panel assay, FaDu; format: cell-based; settings: Homo sapiens, 120 h, Head & Neck, 5 days, read-out: Cellular Proliferation EC50
Method: as §1, §2, §3

D54MG = test: Proliferation panel assay, D54MG; format: cell-based; settings: 120 h, Glioblastoma, 5 days, read-out: Cellular Proliferation EC50
Method: as §1, §2, §3

HepG2 = test: Proliferation panel assay, HepG2; format: cell-based; settings: Homo sapiens, 120 h; Hepatocellular, HepG2, 5 days; read-out: Cellular Proliferation EC50
Method: as §1, §2, §3

SK-LMS-1 = test: Proliferation panel assay, SK-LMS-1; format: cell-based; settings: Homo sapiens, 120 h; Sarcoma, SK-LMS-1, 5 days; read-out: Cellular Proliferation EC50
Method: as §1, §2, §3

Ly18 = test: Proliferation panel assay, Ly18; format: cell-based; settings: 120 h; NHL, Ly18, 5 days; read-out: Cellular Proliferation EC50
Method: as §1, §2, §3

**Q.** How did the EC50 (HPAC) turn out when `Cc1[nH]c(-c2cc(NS(C)(=O)=O)ccc2Oc2ccccc2)c2c1C(=O)CCC2` [Example 40, N-[3-(3-methyl-4-oxo-4,5,6,7-tetrahydro-2H-isoindol-1-yl)-4-phenoxyphenyl]methanesulfonamide] was run?
**A.** 290 nM

**Q.** What about the EC50 (NCI-H929) of the same compound?
**A.** 41 nM

**Q.** What about the EC50 (786-0) of the same compound?
**A.** 139 nM

**Q.** And the EC50 (Ramos)?
**A.** 340 nM

**Q.** What about the “% TGI (tumor growth inhibition)” value ([1]; 10 mg/kg/day PO) of the same compound?
**A.** −1%

**Q.** And the “% TGI (tumor growth inhibition)” value ([1]; 30 mg/kg/day PO)?
**A.** 14%

**Q.** And the “% TGI (tumor growth inhibition)” value ([1]; 100 mg/kg/day PO)?
**A.** 52** %

**Q.** And the “% TGI (tumor growth inhibition)” value ([2]; 10 mg/kg/day PO, BIDx14, based on day 31)?
**A.** 11%

**Q.** And the “% TGD (tumor growth delay)” value ([2]; 10 mg/kg/day PO, BIDx14, endpoint 1000 mm^3)?
**A.** 25%

**Q.** And the “% TGI (tumor growth inhibition)” value ([2]; 10 mg/kg/day PO, QDx14, based on day 31)?
**A.** 16%

**Q.** What about the “% TGD (tumor growth delay)” value ([2]; 10 mg/kg/day PO, QDx14, endpoint 1000 mm^3) of the same compound?
**A.** 25%

**Q.** And the “% TGI (tumor growth inhibition)” value ([2]; 30 mg/kg/day PO, BIDx14, based on day 31)?
**A.** 31* %

**Q.** And the “% TGD (tumor growth delay)” value ([2]; 30 mg/kg/day PO, BIDx14, endpoint 1000 mm^3)?
**A.** 88* %

**Q.** And the “% TGI (tumor growth inhibition)” value ([2]; 30 mg/kg/day PO, QDx14, based on day 31)?
**A.** 27* %

**Q.** What about the “% TGD (tumor growth delay)” value ([2]; 30 mg/kg/day PO, QDx14, endpoint 1000 mm^3) of the same compound?
**A.** 63%

**Q.** What about the “% TGI (tumor growth inhibition)” value ([2]; 100 mg/kg/day PO, BIDx14, based on day 31) of the same compound?
**A.** 43** %

**Q.** And the “% TGD (tumor growth delay)” value ([2]; 100 mg/kg/day PO, BIDx14, endpoint 1000 mm^3)?
**A.** 175*** %

**Q.** What about the “% TGI (tumor growth inhibition)” value ([2]; 100 mg/kg/day PO, QDx14, based on day 31) of the same compound?
**A.** 41** %

**Q.** What about the “% TGD (tumor growth delay)” value ([2]; 100 mg/kg/day PO, QDx14, endpoint 1000 mm^3) of the same compound?
**A.** 88*** %

**Q.** What about the EC50 (BxPC3FP5) of the same compound?
**A.** 70 nM

**Q.** And the mortality ([3]; 25 mg/kg/day PO, BID x 14)?
**A.** ^b10% mortality.

**Q.** What about the “% TGI (tumor growth inhibition)” value ([3]; 25 mg/kg/day PO, BID x 14, based on day 31) of the same compound?
**A.** 14^b %

**Q.** And the mortality ([3]; 50 mg/kg/day PO, BID x 14)?
**A.** ^c30% mortality

**Q.** And the “% TGI (tumor growth inhibition)” value ([3]; 50 mg/kg/day PO, BID x 14, based on day 31)?
**A.** 42^c** %

**Q.** What about the mortality ([3]; 100 mg/kg/day PO, BID 5 on, 3 off x 2) of the same compound?
**A.** ^d40% mortality

**Q.** What about the “% TGI (tumor growth inhibition)” value ([3]; 100 mg/kg/day PO, BID 5 on, 3 off x 2, based on day 31) of the same compound?
**A.** 67^d** %

**Q.** And the EC50 (Raji)?
**A.** 36 nM

**Q.** And the EC50 (GEO)?
**A.** 380 nM

**Q.** And the EC50 (MDAMB231)?
**A.** 310 nM

**Q.** And the EC50 (FaDu)?
**A.** 180 nM

**Q.** What about the EC50 (D54MG) of the same compound?
**A.** 210 nM

**Q.** And the EC50 (HepG2)?
**A.** 320 nM

**Q.** What about the EC50 (SK-LMS-1) of the same compound?
**A.** 176 nM

**Q.** And the EC50 (Ly18)?
**A.** 370 nM
